Measurements from ChEMBL document CHEMBL5463721, “Data for DCP probe WEB2086” (2023).

Experiments:
[1] = target: Platelet-activating factor receptor (Homo sapiens, UniProt P25105); experiment: PAF Receptor Binding
[2] = target: 5-hydroxytryptamine receptor 1B (Homo sapiens) (UniProt P28222); experiment: 5-HT1B Eurofins-Cerep binding assay; set-up: ligand concentration 1 nM; conditions: Compound concentration 10.0 uM
[3] = target: Cannabinoid receptor 1 (Homo sapiens) (UniProt P21554); experiment: CB1 Eurofins-Cerep binding assay; conditions: Compound concentration 10.0 uM
[4] = target: Prostaglandin G/H synthase 1 (Homo sapiens) (UniProt P23219); experiment: Inhibitor of COX-1 in the Eurofins Cerep SafetyScreen44 (BI) by Fluorimetry (Cerep_4173); conditions: Compound concentration 10.0 uM
[5] = target: Prostaglandin G/H synthase 2 (Homo sapiens) (UniProt P35354); experiment: Inhibitor of COX-2 in the Eurofins Cerep SafetyScreen44 (BI) by Fluorimetry (Cerep_4186); conditions: Compound concentration 10.0 uM
[6] = target: Kappa-type opioid receptor (Homo sapiens) (UniProt P41145); experiment: kappa (KOP) Eurofins-Cerep binding assay; conditions: Compound concentration 10.0 uM
[7] = target: 5-hydroxytryptamine receptor 1A (Homo sapiens) (UniProt P08908); experiment: 5-HT1A Eurofins-Cerep binding assay; set-up: ligand concentration 0.5 nM; conditions: Compound concentration 10.0 uM
[8] = target: 5-hydroxytryptamine receptor 2A (Homo sapiens) (UniProt P28223); experiment: Agonist activity in the Eurofins Cerep SafetyScreen44 (BI) against 5HT2AH_AGON by Scintillation counting (Cerep_471); conditions: Compound concentration 10.0 uM
5-hydroxytryptamine receptor 2A (Homo sapiens), sequence (P28223 whole entry): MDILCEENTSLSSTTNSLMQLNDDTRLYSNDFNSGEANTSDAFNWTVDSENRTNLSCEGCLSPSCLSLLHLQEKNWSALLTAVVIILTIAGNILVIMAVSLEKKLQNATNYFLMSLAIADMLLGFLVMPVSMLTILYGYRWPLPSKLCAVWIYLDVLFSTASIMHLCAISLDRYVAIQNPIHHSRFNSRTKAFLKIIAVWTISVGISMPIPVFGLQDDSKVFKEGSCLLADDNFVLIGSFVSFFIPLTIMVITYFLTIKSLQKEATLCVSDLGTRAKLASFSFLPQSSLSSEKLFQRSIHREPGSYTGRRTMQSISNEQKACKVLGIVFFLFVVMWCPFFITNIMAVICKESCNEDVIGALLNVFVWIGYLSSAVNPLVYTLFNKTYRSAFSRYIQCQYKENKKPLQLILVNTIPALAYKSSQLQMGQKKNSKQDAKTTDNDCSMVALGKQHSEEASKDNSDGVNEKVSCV

[9] = target: 5-hydroxytryptamine receptor 2B (Homo sapiens) (UniProt P41595); experiment: 5-HT2B Eurofins-Cerep binding assay; conditions: Compound concentration 10.0 uM
[10] = target: 5-hydroxytryptamine receptor 3A (Homo sapiens) (UniProt P46098); experiment: 5-HT3 Eurofins-Cerep binding assay; set-up: ligand concentration 0.5 nM; conditions: Compound concentration 10.0 uM
[11] = target: Adenosine receptor A2a (Homo sapiens) (UniProt P29274); experiment: A2A Eurofins-Cerep binding assay; set-up: ligand concentration 6 nM; conditions: Compound concentration 10.0 uM
[12] = target: Angiotensin-converting enzyme (Homo sapiens) (UniProt P12821); experiment: Activity against ACE(HU_AMTCH400) in the Eurofins Cerep SafetyScreen44 (BI) by Photometry (Cerep_3441); conditions: Compound concentration 10.0 uM
[13] = target: Alpha-1A adrenergic receptor (Homo sapiens) (UniProt P35348); experiment: Agonist activity in the Eurofins Cerep SafetyScreen44 (BI) against ALPHA1AH_ANTAG by Scintillation counting (Cerep_2338); conditions: Compound concentration 10.0 uM
[14] = target: Alpha-2A adrenergic receptor (Homo sapiens) (UniProt P08913); experiment: Inhibitor of ALPHA2A/HU in the Eurofins Cerep SafetyScreen44 (BI) by Radioactive Assay (Cerep_13); conditions: Compound concentration 10.0 uM
[15] = target: Beta-1 adrenergic receptor (Homo sapiens) (UniProt P08588); experiment: beta 1 Eurofins-Cerep binding assay; set-up: ligand concentration 0.3 nM; conditions: Compound concentration 10.0 uM
[16] = target: Beta-2 adrenergic receptor (Homo sapiens) (UniProt P07550); experiment: beta 2 Eurofins-Cerep binding assay; conditions: Compound concentration 10.0 uM
Beta-2 adrenergic receptor (Homo sapiens), sequence (P07550 whole entry, looked up): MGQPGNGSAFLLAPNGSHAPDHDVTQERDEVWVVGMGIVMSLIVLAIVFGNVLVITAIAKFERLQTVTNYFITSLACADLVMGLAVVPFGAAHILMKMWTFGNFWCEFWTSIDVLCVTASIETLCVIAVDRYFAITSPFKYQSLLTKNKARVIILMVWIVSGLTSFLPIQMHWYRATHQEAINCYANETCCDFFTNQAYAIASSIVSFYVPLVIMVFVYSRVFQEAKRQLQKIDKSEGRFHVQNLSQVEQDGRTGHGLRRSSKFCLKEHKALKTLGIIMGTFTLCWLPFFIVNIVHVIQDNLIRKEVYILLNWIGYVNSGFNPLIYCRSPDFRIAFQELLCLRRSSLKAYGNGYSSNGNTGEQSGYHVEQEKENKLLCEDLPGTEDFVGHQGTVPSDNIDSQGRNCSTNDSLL

[17] = organism: Rattus norvegicus; experiment: Activity against BZD/CENTR/R in the Eurofins Cerep SafetyScreen44 (BI) by Radioactive Assay (Cerep_28); type: protein-complex assay; conditions: Compound concentration 10.0 uM
[18] = target: L-type calcium channel (dihydropyridine site), Cav1.2 alpha-1C (Rattus norvegicus, UniProt P22002); experiment: Inhibitor of CA+/DHPSI/R in the Eurofins Cerep SafetyScreen44 (BI) by Radioactive Assay (Cerep_161); type: protein assay; set-up: scale not given: the % may be the effect or the level left; conditions: rat brain, probe [3H](+)PN200-110, compound concentration 10 uM, read-out: % Ctrl
[19] = target: Cannabinoid receptor 2 (Homo sapiens) (UniProt P34972); experiment: Activity against CB2/PERIPH/H in the Eurofins Cerep SafetyScreen44 (BI) by Radioactive Assay (Cerep_37); conditions: Compound concentration 10.0 uM
[20] = target: Cholecystokinin receptor type A (Homo sapiens) (UniProt P32238); experiment: CCK1 (CCKA) Eurofins-Cerep binding assay; set-up: ligand concentration 0.08 nM; conditions: Compound concentration 10.0 uM
Cholecystokinin receptor type A (Homo sapiens), sequence (P32238 whole entry): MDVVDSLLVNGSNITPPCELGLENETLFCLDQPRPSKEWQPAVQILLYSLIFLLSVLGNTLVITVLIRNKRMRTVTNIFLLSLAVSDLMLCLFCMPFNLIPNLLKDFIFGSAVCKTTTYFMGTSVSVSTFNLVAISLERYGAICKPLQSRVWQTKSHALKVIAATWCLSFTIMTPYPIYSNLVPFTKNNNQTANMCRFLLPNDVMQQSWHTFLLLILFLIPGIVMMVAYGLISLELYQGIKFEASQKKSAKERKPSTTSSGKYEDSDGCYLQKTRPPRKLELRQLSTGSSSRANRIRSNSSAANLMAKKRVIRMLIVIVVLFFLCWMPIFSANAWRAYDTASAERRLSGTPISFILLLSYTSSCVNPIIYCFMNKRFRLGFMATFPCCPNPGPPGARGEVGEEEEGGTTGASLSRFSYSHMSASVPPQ

[21] = target: D(1A) dopamine receptor (Homo sapiens) (UniProt P21728); experiment: D1 Eurofins-Cerep binding assay; set-up: ligand concentration 0.3 nM; conditions: Compound concentration 10.0 uM
D(1A) dopamine receptor (Homo sapiens), sequence (P21728 whole entry): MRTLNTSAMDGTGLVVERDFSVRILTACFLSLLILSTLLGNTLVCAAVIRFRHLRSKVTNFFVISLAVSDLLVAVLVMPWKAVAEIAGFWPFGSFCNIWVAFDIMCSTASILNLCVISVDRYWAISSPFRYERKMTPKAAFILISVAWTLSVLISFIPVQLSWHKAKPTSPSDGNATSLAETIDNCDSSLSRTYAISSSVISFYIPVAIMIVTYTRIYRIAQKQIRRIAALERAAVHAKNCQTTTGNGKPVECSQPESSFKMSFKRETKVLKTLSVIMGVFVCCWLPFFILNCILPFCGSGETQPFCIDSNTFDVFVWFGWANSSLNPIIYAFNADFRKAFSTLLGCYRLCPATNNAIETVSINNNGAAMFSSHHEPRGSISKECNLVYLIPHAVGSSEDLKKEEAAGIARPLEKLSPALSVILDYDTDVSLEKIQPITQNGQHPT

[22] = target: D(2) dopamine receptor (Homo sapiens) (UniProt P14416); experiment: Agonist activity in the Eurofins Cerep SafetyScreen44 (BI) against D2SH_AGON by Scintillation counting (Cerep_1322); conditions: Compound concentration 10.0 uM
D(2) dopamine receptor (Homo sapiens), sequence (P14416 whole entry): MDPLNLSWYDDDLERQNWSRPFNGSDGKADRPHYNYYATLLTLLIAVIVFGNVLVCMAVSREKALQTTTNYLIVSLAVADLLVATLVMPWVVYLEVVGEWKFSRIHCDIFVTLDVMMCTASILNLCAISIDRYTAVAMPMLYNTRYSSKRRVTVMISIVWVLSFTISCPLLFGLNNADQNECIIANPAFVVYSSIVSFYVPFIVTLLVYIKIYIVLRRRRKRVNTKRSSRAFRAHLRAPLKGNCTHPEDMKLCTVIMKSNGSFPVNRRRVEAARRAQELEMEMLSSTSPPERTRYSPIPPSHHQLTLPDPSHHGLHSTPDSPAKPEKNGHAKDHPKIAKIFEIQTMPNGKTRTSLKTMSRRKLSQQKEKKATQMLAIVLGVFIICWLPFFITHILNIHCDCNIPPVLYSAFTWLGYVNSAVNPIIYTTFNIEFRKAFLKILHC

[23] = target: Sodium-dependent dopamine transporter (Homo sapiens) (UniProt Q01959); experiment: dopamine transporter Eurofins-Cerep binding assay; conditions: Compound concentration 10.0 uM
[24] = target: Delta-type opioid receptor (Homo sapiens) (UniProt P41143); experiment: delta (DOP) Eurofins-Cerep binding assay; set-up: ligand concentration 0.5 nM; conditions: Compound concentration 10.0 uM
Delta-type opioid receptor (Homo sapiens), sequence (P41143 whole entry): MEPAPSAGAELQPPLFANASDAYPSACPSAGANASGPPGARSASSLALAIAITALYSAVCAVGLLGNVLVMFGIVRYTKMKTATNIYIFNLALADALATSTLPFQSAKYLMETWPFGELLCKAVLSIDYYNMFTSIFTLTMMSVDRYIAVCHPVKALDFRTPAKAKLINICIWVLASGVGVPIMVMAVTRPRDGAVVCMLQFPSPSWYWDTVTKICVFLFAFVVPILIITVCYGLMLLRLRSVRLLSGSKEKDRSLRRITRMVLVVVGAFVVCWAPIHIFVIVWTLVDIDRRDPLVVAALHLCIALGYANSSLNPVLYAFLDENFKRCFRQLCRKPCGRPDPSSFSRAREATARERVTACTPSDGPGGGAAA

[25] = target: Endothelin-1 receptor (Homo sapiens) (UniProt P25101); experiment: ETA Eurofins-Cerep binding assay; set-up: ligand concentration 0.03 nM; conditions: Compound concentration 10.0 uM
[26] = target: Glucocorticoid receptor (Homo sapiens) (UniProt P04150); experiment: GR Eurofins-Cerep binding assay; conditions: Compound concentration 10.0 uM
[27] = target: Histamine H1 receptor (Homo sapiens) (UniProt P35367); experiment: H1 Eurofins-Cerep binding assay; set-up: ligand concentration 1 nM; conditions: Compound concentration 10.0 uM
[28] = target: Histamine H2 receptor (Homo sapiens) (UniProt P25021); experiment: H2 Eurofins-Cerep binding assay; set-up: ligand concentration 0.075 nM; conditions: Compound concentration 10.0 uM
Histamine H2 receptor (Homo sapiens), sequence (P25021 whole entry): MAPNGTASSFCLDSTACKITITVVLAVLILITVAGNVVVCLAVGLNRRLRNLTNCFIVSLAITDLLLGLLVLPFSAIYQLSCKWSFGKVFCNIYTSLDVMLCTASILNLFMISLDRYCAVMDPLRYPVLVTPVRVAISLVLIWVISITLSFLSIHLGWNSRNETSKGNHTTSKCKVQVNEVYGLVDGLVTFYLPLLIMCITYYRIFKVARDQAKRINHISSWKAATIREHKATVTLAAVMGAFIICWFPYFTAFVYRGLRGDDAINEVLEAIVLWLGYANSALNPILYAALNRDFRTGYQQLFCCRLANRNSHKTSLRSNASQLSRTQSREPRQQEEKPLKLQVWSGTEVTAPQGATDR

[29] = target: hERG (KCNH2) (Homo sapiens, UniProt Q12809); experiment: Inhibitor of HERG_DOFETILIDE in the Eurofins Cerep SafetyScreen44 (BI) by Scintillation counting (Cerep_4094); set-up: scale not given: the % may be the effect or the level left; conditions: probe [3H] dofetilide, compound concentration 10 uM, read-out: % Ctrl
[30] = organism: Rattus norvegicus; experiment: KV channel Eurofins-Cerep binding assay; set-up: ligand concentration 0.01 nM; conditions: Compound concentration 10.0 uM
[31] = target: Tyrosine-protein kinase Lck (Homo sapiens) (UniProt P06239); experiment: Inhibitor of LCK_CE in the Eurofins Cerep SafetyScreen44 (BI) by lanthanide chelation excitation (Cerep_2906); conditions: Compound concentration 10.0 uM
[32] = target: Muscarinic acetylcholine receptor M1 (Homo sapiens) (UniProt P11229); experiment: M1 Eurofins-Cerep binding assay; set-up: ligand concentration 2 nM; conditions: Compound concentration 10.0 uM
[33] = target: Muscarinic acetylcholine receptor M2 (Homo sapiens) (UniProt P08172); experiment: M2 Eurofins-Cerep binding assay; set-up: ligand concentration 2 nM; conditions: Compound concentration 10.0 uM
Muscarinic acetylcholine receptor M2 (Homo sapiens), sequence (P08172 whole entry): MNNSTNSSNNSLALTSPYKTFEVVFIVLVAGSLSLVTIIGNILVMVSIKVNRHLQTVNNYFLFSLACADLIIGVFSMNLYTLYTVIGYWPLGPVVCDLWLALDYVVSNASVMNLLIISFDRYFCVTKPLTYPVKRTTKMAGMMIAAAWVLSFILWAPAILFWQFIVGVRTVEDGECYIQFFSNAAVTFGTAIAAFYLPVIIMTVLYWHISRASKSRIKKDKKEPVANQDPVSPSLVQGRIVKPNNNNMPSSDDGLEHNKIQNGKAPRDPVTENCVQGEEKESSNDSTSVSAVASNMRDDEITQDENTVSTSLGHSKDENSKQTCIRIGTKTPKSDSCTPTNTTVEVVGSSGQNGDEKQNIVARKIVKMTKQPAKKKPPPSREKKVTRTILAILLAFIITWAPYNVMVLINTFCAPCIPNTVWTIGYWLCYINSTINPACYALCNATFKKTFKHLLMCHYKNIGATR

[34] = target: Muscarinic acetylcholine receptor M3 (Homo sapiens) (UniProt P20309); experiment: M3 Eurofins-Cerep binding assay; set-up: ligand concentration 0.2 nM; conditions: Compound concentration 10.0 uM
[35] = target: MAO-A (amine oxidase [flavin-containing] A) (Homo sapiens, UniProt P21397); experiment: Agonist activity in the Eurofins Cerep SafetyScreen44 (BI) against MAO-A_ANTAG by Scintillation counting (Cerep_443); set-up: scale not given: the % may be the effect or the level left; conditions: rat, compound concentration 10 uM, read-out: % Ctrl
MAO-A (amine oxidase [flavin-containing] A), sequence (P21397 whole entry): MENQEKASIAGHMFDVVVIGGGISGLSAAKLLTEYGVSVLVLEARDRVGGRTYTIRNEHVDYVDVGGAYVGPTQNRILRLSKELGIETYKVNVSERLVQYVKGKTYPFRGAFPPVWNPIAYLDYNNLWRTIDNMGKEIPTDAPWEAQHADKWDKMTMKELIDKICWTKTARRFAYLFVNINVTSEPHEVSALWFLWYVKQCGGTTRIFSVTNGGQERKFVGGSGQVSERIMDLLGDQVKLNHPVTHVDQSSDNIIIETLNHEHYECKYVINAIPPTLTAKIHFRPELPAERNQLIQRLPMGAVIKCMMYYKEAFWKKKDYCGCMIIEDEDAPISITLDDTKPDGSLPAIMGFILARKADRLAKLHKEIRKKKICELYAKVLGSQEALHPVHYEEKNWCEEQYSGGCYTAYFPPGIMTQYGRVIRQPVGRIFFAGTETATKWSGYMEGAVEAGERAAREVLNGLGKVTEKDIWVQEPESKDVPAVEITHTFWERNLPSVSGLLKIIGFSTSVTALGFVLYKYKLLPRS

[36] = target: Mu-type opioid receptor (Homo sapiens) (UniProt P35372); experiment: mu (MOP) Eurofins-Cerep binding assay; set-up: ligand concentration 0.5 nM; conditions: Compound concentration 10.0 uM
[37] = target: Sodium-dependent noradrenaline transporter (Homo sapiens) (UniProt P23975); experiment: norepinephrine transporter Eurofins-Cerep binding assay; set-up: ligand concentration 1 nM; conditions: Compound concentration 10.0 uM
Sodium-dependent noradrenaline transporter (Homo sapiens), sequence (P23975 whole entry): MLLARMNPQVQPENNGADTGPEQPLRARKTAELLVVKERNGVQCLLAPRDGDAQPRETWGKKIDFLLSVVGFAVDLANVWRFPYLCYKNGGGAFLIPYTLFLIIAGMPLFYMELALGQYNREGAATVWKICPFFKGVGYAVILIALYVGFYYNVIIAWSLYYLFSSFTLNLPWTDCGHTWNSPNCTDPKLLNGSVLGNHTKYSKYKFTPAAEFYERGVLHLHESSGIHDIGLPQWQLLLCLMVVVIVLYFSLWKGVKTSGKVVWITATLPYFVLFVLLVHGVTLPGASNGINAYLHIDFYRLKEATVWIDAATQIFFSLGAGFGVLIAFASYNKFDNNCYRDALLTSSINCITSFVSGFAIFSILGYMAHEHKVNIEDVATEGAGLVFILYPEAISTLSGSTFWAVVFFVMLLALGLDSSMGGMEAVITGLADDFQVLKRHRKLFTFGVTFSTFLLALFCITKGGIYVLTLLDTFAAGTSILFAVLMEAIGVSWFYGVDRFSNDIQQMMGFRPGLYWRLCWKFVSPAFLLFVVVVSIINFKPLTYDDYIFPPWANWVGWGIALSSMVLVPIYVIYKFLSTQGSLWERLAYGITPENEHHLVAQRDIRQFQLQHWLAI

[38] = target: Glutamate NMDA receptor (Rattus norvegicus) (UniProt P35439+Q00959+Q00960+Q00961+Q62645+Q8VHN2+Q9R1M7); experiment: Inhibitor of NMDA/R in the Eurofins Cerep SafetyScreen44 (BI) by Radioactive Assay (Cerep_66); type: protein-complex assay; conditions: Compound concentration 10.0 uM
[39] = organism: Homo sapiens; experiment: Agonist activity in the Eurofins Cerep SafetyScreen44 (BI) against N_NEURO_A4B2 by Radioligand Binding (Cerep_3029); type: protein-complex assay; conditions: Compound concentration 10.0 uM
[40] = target: cGMP-inhibited 3',5'-cyclic phosphodiesterase 3A (Homo sapiens) (UniProt Q14432); experiment: Inhibitor of PDE3A in the Eurofins Cerep SafetyScreen44 (BI) by HTRF-homogeneous time resolved fluoresce (Cerep_4072); conditions: Compound concentration 10.0 uM
[41] = target: 3',5'-cyclic-AMP phosphodiesterase 4D (Homo sapiens) (UniProt Q08499); experiment: Inhibitor of PDE4D2 in the Eurofins Cerep SafetyScreen44 (BI) by Scintillation counting (Cerep_4077); conditions: Compound concentration 10.0 uM
[42] = target: Sodium-dependent serotonin transporter (Homo sapiens) (UniProt P31645); experiment: 5-HT transporter Eurofins-Cerep binding assay; set-up: ligand concentration 2 nM; conditions: Compound concentration 10.0 uM
[43] = target: Vasopressin V1a receptor (Homo sapiens) (UniProt P37288); experiment: V1a Eurofins-Cerep binding assay; set-up: ligand concentration 0.3 nM; conditions: Compound concentration 10.0 uM
Vasopressin V1a receptor (Homo sapiens), sequence (P37288 whole entry, looked up): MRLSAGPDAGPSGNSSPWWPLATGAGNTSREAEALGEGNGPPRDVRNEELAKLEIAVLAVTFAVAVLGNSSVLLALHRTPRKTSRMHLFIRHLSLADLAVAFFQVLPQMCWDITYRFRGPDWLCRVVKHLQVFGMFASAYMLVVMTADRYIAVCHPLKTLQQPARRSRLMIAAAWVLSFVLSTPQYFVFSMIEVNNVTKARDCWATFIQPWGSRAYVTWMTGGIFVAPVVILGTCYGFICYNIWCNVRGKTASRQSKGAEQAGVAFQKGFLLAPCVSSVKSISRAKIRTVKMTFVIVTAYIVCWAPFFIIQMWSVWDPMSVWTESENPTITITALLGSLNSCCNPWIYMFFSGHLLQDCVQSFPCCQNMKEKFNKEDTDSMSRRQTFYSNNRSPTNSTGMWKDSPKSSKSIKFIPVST

[44] = target: Androgen receptor (Homo sapiens) (UniProt P10275); conditions: Compound concentration 10.0 uM
Description: Activity against ANDROGEN/H in the Eurofins Cerep SafetyScreen44 (BI) by Radioactive Assay (Cerep_933)

Cc1nnc2n1-c1sc3c(c1C(c1ccccc1Cl)=NC2)C[C@@H](C(=O)N1CCOCC1)C3
Kd [1]: 660 nM (not active)
residual activity [2]: 65%
residual activity [3]: 123%
residual activity [4]: 97%
residual activity [5]: 96%
residual activity [6]: 91%
residual activity [7]: 88%
residual activity [8]: 100%
residual activity [9]: 92%
residual activity [10]: 103%
residual activity [11]: 106%
residual activity [12]: 102%
residual activity [13]: 95%
residual activity [14]: 102%
residual activity [15]: 88%
residual activity [16]: 103%
residual activity [17]: 102%
activity at 10 µM [18]: 103% (not active)
residual activity [19]: 107%
residual activity [20]: 90%
residual activity [21]: 97%
residual activity [22]: 97%
residual activity [23]: 96%
residual activity [24]: 101%
residual activity [25]: 103%
residual activity [26]: 115%
residual activity [27]: 100%
residual activity [28]: 100%
activity at 10 µM [29]: 93% (not active)
residual activity [30]: 101%
residual activity [31]: 106%
residual activity [32]: 104%
residual activity [33]: 82%
residual activity [34]: 84%
activity at 10 µM ([35]; target entry is the homologue from another species): 107% (not active)
residual activity [36]: 109%
residual activity [37]: 99%
residual activity [38]: 97%
residual activity [39]: 94%
residual activity [40]: 109%
residual activity [41]: 104%
residual activity [42]: 98%
residual activity [43]: 84%
residual activity [44]: 106%

Cc1nnc2n1-c1sc(CCC(=O)N3CCOCC3)cc1C(c1ccccc1Cl)=NC2 [APAFANT]
residual activity [2]: 91%
residual activity [3]: 103%
residual activity [4]: 96%
residual activity [5]: 47%
residual activity [6]: 95%
residual activity [7]: 101%
residual activity [8]: 114%
residual activity [9]: 86%
residual activity [10]: 102%
residual activity [11]: 104%
residual activity [12]: 96%
residual activity [13]: 99%
residual activity [14]: 100%
residual activity [15]: 101%
residual activity [16]: 107%
residual activity [17]: 12%
activity at 10 µM [18]: 106% (not active)
residual activity [19]: 111%
residual activity [20]: 90%
residual activity [21]: 101%
residual activity [22]: 114%
residual activity [23]: 97%
residual activity [24]: 99%
residual activity [25]: 106%
residual activity [26]: 105%
residual activity [27]: 101%
residual activity [28]: 108%
activity at 10 µM [29]: 105% (not active)
residual activity [30]: 94%
residual activity [31]: 123%
residual activity [32]: 107%
residual activity [33]: 98%
residual activity [34]: 98%
activity at 10 µM [35]: 93% (not active)
residual activity [36]: 108%
residual activity [37]: 94%
residual activity [38]: 101%
residual activity [39]: 104%
residual activity [40]: 105%
residual activity [41]: 103%
residual activity [42]: 106%
residual activity [43]: 109%
